Data from patent US6048862A, “Benzylamidine derivatives with serotonin receptor binding activity” (Virginia Commonwealth University, priority 1999, dated 2000).
Counter-ions that a name gives are not always drawn. Like-named read-outs stand apart in the source and are kept apart here.

How the values were obtained:
[1] = target: 5-HT1Dβ (Homo sapiens, UniProt P28222); experiment: Binding affinity, 3H-serotonin displacement, membranes of recombinant cells expressing 5-HT1Dβ
Method: (§1) Compounds of the previous examples, as well as reference compounds were evaluated for binding affinity using cell types receptive specifically to 5-HT1Dα and 5-HT1Dβ ligands. The assay protocol generally entailed the incubation of membranes prepared from cells expressing the 5-HT1Dα or 5-HT1Dβ subtype of 5-HT receptors with ^3 H-serotonin. Increasing concentrations of the test compound were incubated with the radioligand and the membrane homogenates prepared from the recombinant cells. After a 60 minute incubation at 22° C., the incubation was terminated by vacuum filtration. The filters were washed with buffer and counted for radioactivity using liquid scintillation spectroscopy. The affinity of the test compound for the 5-HT1Dα or 5-HT1Dβ receptor was determined by computer-assisted analysis of the data and by determining the amount of compound necessary to inhibit 50% of the binding of the radioligand to the receptor. Concentrations ranging from 10^-11 M to 10^- 5 M of the test compound were evaluated.

[2] = target: 5-HT1Dα (Homo sapiens, UniProt P28221); experiment: biochemical; format: binding; details: for 5-HT1Dβ / 5-HT1Dα: ratio of Ki values, selectivity for 5-HT1Dα over 5-HT1Dβ
Method: as §1

[3] = target: T1, 5-HT1D receptor (Oryctolagus cuniculus, UniProt P49144); experiment: 5-HT1D receptor agonist assay: contraction of isolated rabbit saphenous vein; format: cell-based
T1 construct: Ring segments of the vein (4-5 mm in length) were cut and the endothelium gently removed; from tissue; host or cells: saphenous vein rings, endothelium removed, male New Zealand White rabbit
Method: The saphenous veins from both the left and right side were cleaned of fat and connective tissue and placed in Krebs solution (118 mM NaCl, 11 mM glucose, 25 mM NaHCO3, 4.7 mM KCl, 2.5 mM CaCl2. 2H2 O, 1.2 mM KH2 PO4, and 1.2 mM MgSO4. 7H2 O. Ring segments of the vein (4-5 mm in length) were cut and the endothelium gently removed. The segments were mounted in 10 mL baths containing Krebs buffer and were constantly aerated with 95% oxygen/5% carbon dioxide and maintained at 37° C. and pH 7.4 in order to record the isometric tension. A resting tension of 2.5 g was applied and the tissues allowed to equilibrate for 90 minutes, with washing every 15-20 minutes. After the equilibrium period, the rings were depolarized by the addition of two aliquots of KCl (80 mM final concentration) separated by a 20 minute washing period. The tissues were then exposed to prazosin, idazoxan and indomethacin (all 1 μM final concentration) for 30 minutes in order to exclude the actions of α1 - and α2 -adrenergic receptors and prostaglandin receptors respectively. […] Responses were calculated as a percentage of the maximal contraction evoked by 80 mM KCl. Only one compound was tested per preparation.
EC50 represents the concentration of the compound which causes 50% of the maximum contraction effected by it. If the compound included a maximum contraction of less than 60% of that of KCl (80 mM), it was considered a partial agonist.

[4] = 3H-serotonin radioligand, 60 minute incubation at 22° C., read-out: 5-HT1Dβ Kl
[5] = 3H-serotonin radioligand, 60 minute incubation at 22° C., read-out: 5-HT1Dα Kl
[6] = rabbit isolated saphenous vein, prazosin, idazoxan and indomethacin (1 μM) present, 50% of the compound's own maximum contraction, 37° C., pH 7.4, read-out: EC50

5-HT1Dα, sequence (P28221 whole entry): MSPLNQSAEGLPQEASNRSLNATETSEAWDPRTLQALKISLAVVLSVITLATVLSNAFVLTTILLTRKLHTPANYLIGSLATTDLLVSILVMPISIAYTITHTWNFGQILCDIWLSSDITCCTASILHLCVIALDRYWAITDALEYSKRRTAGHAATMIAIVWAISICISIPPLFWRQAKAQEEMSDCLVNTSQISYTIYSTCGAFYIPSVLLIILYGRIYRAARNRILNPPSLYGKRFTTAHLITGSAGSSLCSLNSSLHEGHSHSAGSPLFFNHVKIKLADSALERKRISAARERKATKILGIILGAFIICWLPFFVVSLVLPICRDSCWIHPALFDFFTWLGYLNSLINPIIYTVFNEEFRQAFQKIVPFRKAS
5-HT1Dβ, sequence (P28222 whole entry): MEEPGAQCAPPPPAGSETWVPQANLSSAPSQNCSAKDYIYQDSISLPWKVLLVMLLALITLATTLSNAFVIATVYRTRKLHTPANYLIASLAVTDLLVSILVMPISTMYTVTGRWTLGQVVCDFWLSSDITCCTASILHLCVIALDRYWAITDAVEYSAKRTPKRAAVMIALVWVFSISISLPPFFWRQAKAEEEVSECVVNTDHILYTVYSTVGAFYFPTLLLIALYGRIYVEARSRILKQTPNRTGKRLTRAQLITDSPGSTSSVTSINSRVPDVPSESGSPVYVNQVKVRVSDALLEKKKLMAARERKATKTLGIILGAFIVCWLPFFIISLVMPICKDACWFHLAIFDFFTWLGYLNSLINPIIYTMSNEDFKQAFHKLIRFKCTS
T1 sequence (P49144 whole entry): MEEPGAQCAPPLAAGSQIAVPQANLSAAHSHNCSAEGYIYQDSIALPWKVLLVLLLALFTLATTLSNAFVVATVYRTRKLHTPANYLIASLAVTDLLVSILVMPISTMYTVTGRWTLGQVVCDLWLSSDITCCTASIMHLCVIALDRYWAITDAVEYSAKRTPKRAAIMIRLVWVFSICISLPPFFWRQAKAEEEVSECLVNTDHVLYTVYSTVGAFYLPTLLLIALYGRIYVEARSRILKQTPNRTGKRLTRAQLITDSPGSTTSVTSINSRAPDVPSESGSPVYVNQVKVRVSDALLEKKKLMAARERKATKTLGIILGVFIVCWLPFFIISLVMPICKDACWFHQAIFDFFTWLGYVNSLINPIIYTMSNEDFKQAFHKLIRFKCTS

## Cc1cc(Br)cc(C)c1CC1=NCCN1.Cl [Example 5d, 2-[(4-Bromo-2,6-dimethylphenyl)methyl]-4,5-dihydro-1H-imidazole hydrochloride]
[1]; [4]
  Ki: 1570 nM
[2]; [5]
  Ki: 74 nM
[2]
  5-HT1Dβ / 5-HT1Dα: 21

## CC(C)(C)c1ccc(CC2=NCCN2)cc1 [drawing 22]
[3]; [6]
  EC50: 2900 nM

## CC(C)(C)c1ccc(CC2=NCCN2)cc1 [Example 5b, 2-[(4-t-Butyphenyl)methyl]-4,5-dihydro-1H-imidazole hydrochloride]
[1]; [4]
  Ki: > 10000 nM
[2]; [5]
  Ki: 105 nM
[2]
  5-HT1Dβ / 5-HT1Dα: > 95

## Cc1cc(C(C)(C)C)c(O)c(C)c1CC1=NCCN1 [oxymetazoline, reference compound]
[1]; [4]
  Ki: 0.33 nM

## Cc1cc(C(C)(C)C)cc(C)c1CC1=NCCN1Cc1ccccc1.Cl [Example 5i, 2-[(4-t-Butyl-2,6-dimethylphenyl)methyl]-1-benzyl-4,5-dihydroimidazole hydrochloride]
[1]; [4]
  Ki: 1860 nM
[2]; [5]
  Ki: 30 nM
[2]
  5-HT1Dβ / 5-HT1Dα: 62

## Cc1cc(C(C)(C)C)cc(C)c1CC(=N)N [Example 6, 4-t-Butyl-2,6-dimethylbenzeneethanimidamide]
[1]; [4]
  Ki: 600 nM
[2]; [5]
  Ki: 13 nM
[2]
  5-HT1Dβ / 5-HT1Dα: 46

## Cl.c1ccc2cc(CC3=NCCN3)ccc2c1 [Example 5g, 4,5-Dihydro-2-(2-naphthalenylmethyl)-1H-imidazole hydrochloride]
[1]
  Ki: 1160 nM
[2]
  Ki: 135 nM
  5-HT1Dβ / 5-HT1Dα: 9

## Cc1cc(C(C)(C)C)cc(C)c1CC1=NCCCN1.Cl [Example 5j, 2-(4-t-Butyl-2,6-dimethylbenzyl)-1,4,5,6-tetrahydropyrimidine hydrochloride]
[1]; [4]
  Ki: > 5000 nM
[2]; [5]
  Ki: 35 nM
[2]
  5-HT1Dβ / 5-HT1Dα: > 143

## Cc1cc(C)c(CC2=NCCN2)c(C)c1 [drawing 23]
[3]
  EC50: 100 nM

## Cc1cc(C(C)C)cc(C)c1CC1=NCCN1.Cl [Example 5f, 4,5-Dihydro-2-[(2,6-dimethyl-4-isopropylphenyl)methyl]-1H-imidazole hydrochloride]
[1]; [4]
  Ki: 37 nM
[2]
  Ki: 1.6 nM
  5-HT1Dβ / 5-HT1Dα: 23

## Cc1cc(C)c(CC2=NCCN2)c(C)c1.Cl [Example 5e, 4,5-Dihydro-2-[(2,4,6-trimethylphenyl)methyl]-1H-imidazole hydrochloride]
[1]; [4]
  Ki: 3480 nM
[2]
  Ki: 92 nM
  5-HT1Dβ / 5-HT1Dα: 20

## Cc1cc(C(C)(C)C)cc(C)c1CC1=NCCN1 [Example 5c, 2-[(4-t-Butyl-2,6-dimethylphenyl)methyl]-4,5-dihydro-1H-imidazole hydrochloride]
[1]
  Ki: 14.9 nM

## Cc1cc(C(C)(C)C)ccc1CC1=NCCN1.Cl [Example 5k, 2-[(4-t-Butyl-2-methylphenyl)methyl]-4,5-dihydro-1H-imidazole hydrochloride]
[1]; [4]
  Ki: 712 nM
[2]; [5]
  Ki: 6.8 nM
[2]
  5-HT1Dβ / 5-HT1Dα: 105

## Cc1cc(C(C)(C)C)cc(C)c1CC(=N)N [drawing 24]
[3]; [6]
  EC50: 23 nM

## CC(C)c1ccc(CC2=NCCN2)cc1.Cl [Example 5a, 4,5-Dihydro-2-[(4-isopropylphenyl)methyl]-1H-imidazole Hydrochloride]
[1]; [4]
  Ki: 2780 nM
[2]; [5]
  Ki: 340 nM
[2]
  5-HT1Dβ / 5-HT1Dα: 8
